Experimental data taken from publication PMC3214022, “Plasmodium falciparum Parasites Are Killed by a Transition State Analogue of Purine Nucleoside Phosphorylase in a Primate Animal Model” (PLoS ONE, 2011).
Where “and” joins values, the source holds several entries; their conditions need not be identical. Equal entries are not always repeated.

Assay: Weights, CBC and blood chemistry, Table S1 sheet PD-1 (efficacy study in P. falciparum-infected Aotus)
Assay type: in vivo, Aotus lemurinus lemurinus
Method: Laboratory bred Aotus lemurinus lemurinus monkeys (0.75–0.89 kg) were maintained as described. […] Blood samples were collected before the treatment started (t = 0), 0.05 h, 0.5 h, 1 h, 2 h, 6 h, 24 h, 48 h, and 6, 12 and 18 days after the first dose from each monkey and processed as described below. Pharmacokinetic parameters were calculated using PKSolver. For efficacy studies, Aotus monkeys were inoculated intravenously with 5×10^6 parasites of the FVO strain of P. falciparum in an approved treatment protocol. […] Parasitaemia was determined by Giemsa-stained thick blood smears prepared daily from the marginal ear vein [41]. Blood samples were collected from each monkey and transferred to tubes containing lithium heparin, centrifuged and both plasma and blood cells were frozen at −80 °C until analysis. Animals received a physical examination and blood chemistry profiles were monitored after treatment as described previously. Any monkey not responding appropriately to treatment was cured of its infection with mefloquine (40 mg kg^−1). […] The day of clearance is defined as the first of three consecutive days in which the thick blood films are parasite negative. The day of recrudescence is the first of three consecutive days of positive thick blood films after a period of clearance. Suppression is defined as a transient decrease in the parasite count post-treatment without clearance.

[1] = IV 10 mg/kg once a day/3 days, day -2, 10 mg/kg
[2] = oral 50 mg/kg once a day/3 days, day 9, 50 mg/kg
[3] = oral 50 mg/kg once a day/3 days, day 12, 50 mg/kg
[4] = oral 50 mg/kg once a day/3 days, day 19, 50 mg/kg
[5] = oral 50 mg/kg once a day/3 days, day 25, 50 mg/kg
[6] = oral 50 mg/kg once a day/3 days, day -2, 50 mg/kg

For Nc1nc2c(CN3CC(O)C(CO)C3)c[nH]c2c(=O)[nH]1 (centres unmarked) [BCX4945, 4′-deaza-1′-aza-2′-deoxy-1′-(9-methylene)-Immucillin-G], the “Mean Platelet Volume” value [1] was 14.7 fL and 12.2 fL and 11 fL and 10.9 fL and 13.1 fL, the “Monocytes (%)” value [1] was 5.1% and 3.6% and 2.9% and 6.5% and 4.2% and the “Monocytes (x 103/ul)” value [1] was 0.9 x 103/ul and 0.8 x 103/ul and 0.6 x 103/ul and 0.5 x 103/ul and 0.7 x 103/ul. For the same compound, the Platelets [1] was 354000 µL⁻¹ and 250000 µL⁻¹ and 406000 µL⁻¹ and 431000 µL⁻¹ and 270000 µL⁻¹ and 371000 µL⁻¹, the “Red Cell Distribution Width” value [1] was 12.5% and 12.2% and 11.4% and 12.4% and 12% and the Reticulocytes [1] was 1.9% and 1% and 1.5% and 1.2% and 1.3%. For the same compound, the WEIGHT [1] was 680 g and 766 g and 832 g and 849 g and 684 g, the “Blood Urea Nitrogen” value [2] was 14.3 mg/dL and 15 mg/dL and 13.15 mg/dL and the Creatinine [2] was 0.672 mg/dL and 0.825 mg/dL and 0.587 mg/dL. The Erythrocytes [2] was 4.76e+06 µL⁻¹ and 5.14e+06 µL⁻¹ and 3.94e+06 µL⁻¹, the “Granulocytes (%)” value [2] was 21.7% and 25.8% and 21.1% and the “Granulocytes (x 103/ul)” value [2] was 4.4 x 103/ul and 2.3 x 103/ul and 3.3 x 103/ul. The Hematocrit [2] was 38.1% and 39.5% and 32.5%, the Hemoglobin [2] was 12.9 g/dL and 13.5 g/dL and 10.8 g/dL and the “Lymphocytes (%)” value [2] was 61% and 66.1% and 63.4%. For the same compound, the “Mean Corpuscular Hemoglobin” value [2] was 27.1 pg and 26.3 pg and 27.5 pg, the “Mean Corpuscular Volume” value [2] was 80.1 fL and 76.8 fL and 82.4 fL and the “Mean Hemoglobin Content” value [2] was 33.8 g/dL and 34.2 g/dL and 33.4 g/dL. For the same compound, the “Mean Platelet Volume” value [2] was 11 fL and 13.9 fL, the “Monocytes (%)” value [2] was 17.3% and 8.1% and 15.5% and the “Red Cell Distribution Width” value [2] was 13.3% and 12% and 10.8%. The Reticulocytes [2] was 2.5% and 1.1% and 1%, the WEIGHT [2] was 851 g and 873 g and 776 g and the “Blood Urea Nitrogen” value [3] was 23.05 mg/dL and 23.55 mg/dL and 26.95 mg/dL. For the same compound, the Creatinine [3] was 0.563 mg/dL and 0.686 mg/dL and 0.565 mg/dL, the Erythrocytes [3] was 4.04e+06 µL⁻¹ and 4.25e+06 µL⁻¹ and 2.77e+06 µL⁻¹ and the “Glutamate Pyruvate Transaminase” value [3] was 46.7 U/L and 46.1 U/L and 37.8 U/L. The “Granulocytes (%)” value [3] was 17.9% and 26.3% and 14.8%, the Hematocrit [3] was 33.2% and 32.4% and 22.7% and the Hemoglobin [3] was 7.7 g/dL. For the same compound, the Leucocytes [3] was 42000 µL⁻¹ and 22200 µL⁻¹ and 22000 µL⁻¹, the “Lymphocytes (%)” value [3] was 68.1% and 66.2% and 76.8% and the “Lymphocytes (x 103/ul)” value [3] was 28.6 x 103/ul and 14.7 x 103/ul and 16.9 x 103/ul. For the same compound, the “Mean Corpuscular Hemoglobin” value [3] was 27.7 pg and 26.4 pg and 27.6 pg, the “Mean Corpuscular Volume” value [3] was 82.1 fL and 76.4 fL and 81.9 fL and the “Mean Hemoglobin Content” value [3] was 33.7 g/dL and 34.5 g/dL. For the same compound, the “Mean Platelet Volume” value [3] was 11.3 fL and 14.6 fL and 11.8 fL, the “Monocytes (%)” value [3] was 14% and 7.5% and 8.4% and the “Red Cell Distribution Width” value [3] was 13.4% and 11.3%. For the same compound, the Reticulocytes [3] was 1.9% and 2% and 2.3%, the WEIGHT [3] was 800 g and 804 g and 738 g and the “Blood Urea Nitrogen” value [4] was 16.75 mg/dL and 18.3 mg/dL and 27.85 mg/dL. For the same compound, the Creatinine [4] was 0.614 mg/dL and 0.695 mg/dL and 0.678 mg/dL, the Erythrocytes [4] was 3.94e+06 µL⁻¹ and 4.96e+06 µL⁻¹ and 3.82e+06 µL⁻¹ and the “Granulocytes (%)” value [4] was 9.6% and 17.6% and 10.1%. The Hematocrit [4] was 35.3% and 41.8% and 36.2%, the Hemoglobin [4] was 11.5 g/dL and 14 g/dL and 11.6 g/dL and the “Lymphocytes (%)” value [4] was 79% and 75.3% and 78.4%. For the same compound, the “Mean Corpuscular Hemoglobin” value [4] was 29.3 pg and 28.3 pg and 30.3 pg, the “Mean Corpuscular Volume” value [4] was 89.8 fL and 84.2 fL and 94.8 fL and the “Mean Hemoglobin Content” value [4] was 32.6 g/dL and 33.6 g/dL and 32 g/dL. For the same compound, the “Mean Platelet Volume” value [4] was 12.3 fL and 13.3 fL and 19.7 fL, the “Monocytes (%)” value [4] was 11.4% and 11.5% and the “Monocytes (x 103/ul)” value [4] was 6.8 x 103/ul and 3.9 x 103/ul. For the same compound, the “Red Cell Distribution Width” value [4] was 22.7% and 21.9% and 24.4%, the Reticulocytes [4] was 1.7% and 1.6% and 1.8% and the WEIGHT [4] was 832 g and 847 g and 757 g. The “Blood Urea Nitrogen” value [5] was 24.4 mg/dL and 16 mg/dL and 21 mg/dL, the Creatinine [5] was 0.52 mg/dL and 0.578 mg/dL and 0.663 mg/dL and the Erythrocytes [5] was 4.62e+06 µL⁻¹ and 4.69e+06 µL⁻¹ and 5.44e+06 µL⁻¹. The “Glutamate Pyruvate Transaminase” value [5] was 17.7 U/L and 27.2 U/L, the Hematocrit [5] was 40.4% and 41.4% and 44.4% and the Hemoglobin [5] was 13.5 g/dL and 14 g/dL and 15.5 g/dL. The Leucocytes [5] was 15400 µL⁻¹ and 16400 µL⁻¹ and 15300 µL⁻¹, the “Lymphocytes (%)” value [5] was 65.9% and 79.6% and 75.3% and the “Lymphocytes (x 103/ul)” value [5] was 10.1 x 103/ul and 13.1 x 103/ul and 11.5 x 103/ul. For the same compound, the “Mean Corpuscular Hemoglobin” value [5] was 29.3 pg and 29.8 pg and 28.6 pg, the “Mean Corpuscular Volume” value [5] was 87.4 fL and 88.1 fL and 81.7 fL and the “Mean Hemoglobin Content” value [5] was 33.5 g/dL and 33.7 g/dL and 35 g/dL. For the same compound, the “Mean Platelet Volume” value [5] was 14.1 fL, the “Monocytes (%)” value [5] was 7.3% and 7% and 11.7% and the “Monocytes (x 103/ul)” value [5] was 1.1 x 103/ul and 1.8 x 103/ul. For the same compound, the “Red Cell Distribution Width” value [5] was 19.2% and 20.4% and 17.9%, the Reticulocytes [5] was 1.3% and 2.1% and 2% and the WEIGHT [5] was 748 g and 818 g and 853 g. For the same compound, the “Mean Platelet Volume” value (oral 50 mg/kg once a day/3 days, day -2) was 12.8 fL, the “Blood Urea Nitrogen” value [6] was 18 mg/dL and 23.05 mg/dL and the Creatinine [6] was 0.679 mg/dL and 0.554 mg/dL. For the same compound, the Erythrocytes [6] was 7.17e+06 µL⁻¹ and 6.1e+06 µL⁻¹ and 5.2e+06 µL⁻¹, the “Granulocytes (%)” value [6] was 33.3% and 31.8% and 22.4% and the Hematocrit [6] was 54.4% and 48% and 42.5%. The Hemoglobin [6] was 19.3 g/dL and 17 g/dL and 14.7 g/dL, the Leucocytes [6] was 16900 µL⁻¹ and 15400 µL⁻¹ and 11300 µL⁻¹ and the “Lymphocytes (%)” value [6] was 61.5% and 64.5% and 73.1%. For the same compound, the “Lymphocytes (x 103/ul)” value [6] was 10.4 x 103/ul and 9.9 x 103/ul and 8.3 x 103/ul, the “Mean Corpuscular Hemoglobin” value [6] was 26.8 pg and 27.8 pg and 28.2 pg and the “Mean Corpuscular Volume” value [6] was 75.8 fL and 78.6 fL and 81.7 fL. For the same compound, the “Mean Hemoglobin Content” value [6] was 35.4 g/dL and 34.6 g/dL, the “Mean Platelet Volume” value [6] was 10.2 fL and 10.4 fL and the “Monocytes (%)” value [6] was 5.2% and 3.7% and 4.5%. For the same compound, the “Monocytes (x 103/ul)” value [6] was 0.9 x 103/ul and 0.6 x 103/ul and 0.5 x 103/ul, the Platelets [6] was 463000 µL⁻¹ and 389000 µL⁻¹ and 372000 µL⁻¹ and the “Red Cell Distribution Width” value [6] was 11.8% and 13.6% and 10.4%. For the same compound, the Reticulocytes [6] was 1.8% and 2% and 1.7% and the WEIGHT [6] was 804 g and 800 g and 738 g.
